From US12152035B2, “Androgen receptor binding molecule and use thereof” (Industrial Technology Research Institute, priority 2020, dated 2024)

What was measured:
Assay type in all cases: cell-based
CWR22RV1 cells = assay: Cytotoxicity assay (AlamarBlue, 72 hours); conditions: 72 hours treatment, concentration not given
Experimental: (§1) Compound stock solutions of 10 mM were prepared with 100% DMSO and shaken for 10-15 seconds. The compound stock solutions were centrifuged at 12000 rpm (13523 rcf.) for 5 minutes and record the turbidity or precipitation state with a photo snapshot. The compound stock solutions were resuspended by shaking for 10-15 seconds, and serially diluted with 100% DMSO solution to make the compound concentration to 1000 μM, then to 100, 10, and 1 μM, and then 10-fold diluted with medium to 100, 10, 1, 0.1 μM (final 10% DMSO/medium) to complete compound test sample preparation. Compound treatment was performed by adding 10 μL of compound test sample to cells in each well of a 96-well plate (final 1% DMSO/medium).
(§2) Cells (CWR22Rv1 cells or VCaP cells) were cultured in RPMI-1640 medium supplemented with 10% fetal bovine serum, 10,000 U/mL penicillin and 10,000 μg/mL streptomycin. Cells were cultured at 37° C. in a humidified 5% CO2 incubator.
(§3) Cells were seeded in a 96-well plate (1×10^4 cells/well). 10 μL of the above compound test sample was added to each well of the 96-well plate on next day. After 72 hours of compound treatment, 10 μL of AlamaBlue reagent was added to each of 96 wells and incubated for 4 hours. The fluorescence value at Ex/Em=560/590 nm was read with a microplate reader, and the cytotoxicity (%) was calculated.
(§4) According to the above method, the compounds prepared above were subjected to cytotoxicity test with CWR22RV1 cells and VCaP cells.

VCaP cells = assay: Cytotoxicity assay (AlamarBlue, 72 hours); conditions: 72 hours treatment, concentration not given
Experimental: as §1, §2, §3, §4

[1] = system: full-length androgen receptor; assay: Western blot: degradation of full-length androgen receptor in CWR22RV1 cells; conditions: overnight
Experimental: CWR22Rv1 cells were maintained in RPMI medium supplemented with 10% fetal bovine serum and 1% penicillin-streptomycin at 37° C. in a humidified environment with 5% CO2.
CWR22Rv1 (5×10^5 cells) were seeded in each well of a 6-well plate and incubated overnight. Before compound treatment, the medium in the wells was replaced with a new medium. Cells were treated with different concentrations of compound overnight. Subsequently, cells were harvested by adding cold PBS and scraping cells. Cells were lysed according to general procedures and Western blot assays were performed to assess the ability of compounds to degrade full-length androgen receptor or androgen receptor splice variant 7. The cells or cell lysates were kept on ice at all times.
The following reagents were used in this experiment. Phosphate buffered saline (PBS) (Hyclone, SH30028.02), fetal bovine serum (Hyclone, SH30084.23, Lot AC14563276), penicillin-streptomycin solution (Hyclone, SV30010), 0.5% Trypsin-EDTA (Gibco, 15400-054), CST Lysis Buffer (CST-9803), Halt™ Protease and Phosphatase Inhibitor (ThermoFisher, 78442), Coomassie (Bradford) Protein Assay (Coomassie (Bradford) protein assay) (ThermoFisher, 23200), androgen receptor antibody (Cell Siginaling, CST-5153S), GAPDH antibody (Cell Siginaling, CST-5174S), HRP-goat-anti-rabbit (Jackson Immuno Research, 111-035-003), skim milk, SuperSignal West Pico Maximum Sensitivity substrate (ThermoFisher, 34080).
The compound prepared above was analyzed for its ability to degrade full-length androgen receptor and androgen receptor splice variant 7 in CWR22RV1 cells by Western blotting according to the method shown in item B.3-2 above.

[2] = compound concentration 0.1 (unit not given)
[3] = compound concentration 1 (unit not given)
[4] = compound concentration 10 (unit not given)

SMILES	Cytotoxicity, CWR22RV1 cells (cell viability %) (CWR22RV1 cells)	Cytotoxicity, VCaP cells (cell viability %) (VCaP cells)	Degradation ability for full-length androgen receptor (residual rate %) [1, 2]	Degradation ability for full-length androgen receptor (residual rate %) [1, 3]	Degradation ability for full-length androgen receptor (residual rate %) [1, 4]
O=C1CCC(N2Cc3c(NC(=O)COCCCCOc4ccc(C5CCN(C6=Nn7c(nnc7C(F)(F)F)CC6)CC5)cc4)cccc3C2=O)C(=O)N1 (centres unmarked) [Compound 30, N-(2-(2,6-dioxopiperidin-3-yl)-1-oxoisoindolin-4-yl)-2-(4-(4-(1-(3-(trifluoromethyl)-7,8-dihydro-[1,2,4]triazolo[4,3-b]pyridazin-6-yl)piperidin-4-yl)phenoxy)butoxy)acetamide]	+++ (<40% : +++)	+++ (<40% : +++)	++ (40-60%: ++)	+++ (<40%: +++)	+++ (<40%: +++)
Cc1ncsc1-c1ccc(CNC(=O)[C@H]2C[C@@H](O)CN2C(=O)[C@@H](NC(=O)C2(F)CC2)C(C)(C)C)c(OCCCCCCCOc2ccc(C3CCN(C4=Nn5c(nnc5C(F)(F)F)CC4)CC3)cc2)c1 [Compound 36, (2R,4R)-1-((S)-2-(1-fluorocyclopropane-1-carboxamido)-3,3-dimethylbutanoyl)-4-hydroxy-N-(4-(4-methylthiazol-5-yl)-2-((7-(4-(1-(3-(trifluoromethyl)-7,8-dihydro-[1,2,4]triazolo[4,3-b]pyridazin-6-yl)piperidin-4-yl)phenoxy)heptyl)oxy)benzyl)pyrrolidine-2-carboxamide]	+++ (<40% : +++)	+++ (<40% : +++)	− (>80%; −)	+ (60-80%: +)	+ (60-80%: +)
Cc1ncsc1-c1ccc(CNC(=O)[C@@H]2C[C@H](O)CN2C(=O)[C@@H](NC(=O)COCCCCOc2ccc(C3CCN(c4ccc5nnc(C(F)(F)F)n5n4)CC3)cc2)C(C)(C)C)cc1 [Compound 37, (2S,4S)-1-((S)-3,3-dimethyl-2-(2-(4-(4-(1-(3-(trifluoromethyl)-[1,2,4]triazolo[4,3-b]pyridazin-6-yl)piperidin-4-yl)phenoxy)butoxy)acetamido)butanoyl)-4-hydroxy-N-(4-(4-methylthiazol-5-yl)benzyl)pyrrolidine-2-carboxamide]	+++ (<40% : +++)	+++ (<40% : +++)	− (>80%; −)	+ (60-80%: +)	+++ (<40%: +++)
O=C1CCC(N2Cc3c(NC(=O)COCCCCOc4ccc(C5CCN(c6ccc7nnc(C(F)(F)F)n7n6)CC5)cc4)cccc3C2=O)C(=O)N1 (centres unmarked) [Compound 38, N-(2-(2,6-dioxopiperidin-3-yl)-1-oxoisoindolin-4-yl)-2-(4-(4-(1-(3-(trifluoromethyl)-[1,2,4]triazolo[4,3-b]pyridazin-6-yl)piperidin-4-yl)phenoxy)butoxy)acetamide]	+++ (<40% : +++)	+++ (<40% : +++)	++ (40-60%: ++)	+++ (<40%: +++)	+++ (<40%: +++)
O=C1CCC(N2Cc3c(NC(=O)CCCCCCOc4ccc(C5CCN(C6=Nn7c(nnc7C(F)(F)F)CC6)CC5)cc4)cccc3C2=O)C(=O)N1 (centres unmarked) [Compound 39, N-(2-(2,6-dioxopiperidin-3-yl)-1-oxoisoindolin-4-yl)-7-(4-(1-(3-(trifluoromethyl)-7,8-dihydro-[1,2,4]triazolo[4,3-b]pyridazin-6-yl)piperidin-4-yl)phenoxy)heptanamide]	+++ (<40% : +++)	+++ (<40% : +++)	− (>80%; −)	+ (60-80%: +)	++ (40-60%: ++)
O=C1CCC(N2Cc3cc(C4=CCN(C(=O)COCCCCOc5ccc(C6CCN(C7=Nn8c(nnc8C(F)(F)F)CC7)CC6)cc5)CC4)ccc3C2=O)C(=O)N1 (centres unmarked) [Compound 40, 3-(1-oxo-5-(1-(2-(4-(4-(1-(3-(trifluoromethyl)-7,8-dihydro-[1,2,4]triazolo[4,3-b]pyridazin-6-yl)piperidin-4-yl)phenoxy)butoxy)acetyl)-1,2,3,6-tetrahydropyridin-4-yl)isoindolin-2-yl)piperidine-2,6-dione]	++ (40-60% : ++)	++ (40-60% : ++)	+ (60-80%: +)	+ (60-80%: +)	+++ (<40%: +++)
O=C1CCC(N2Cc3cc(C4CCN(C(=O)COCCCCOc5ccc(C6CCN(C7=Nn8c(nnc8C(F)(F)F)CC7)CC6)cc5)CC4)ccc3C2=O)C(=O)N1 (centres unmarked) [Compound 41, 3-(1-oxo-5-(1-(2-(4-(4-(1-(3-(trifluoromethyl)-7,8-dihydro-[1,2,4]triazolo[4,3-b]pyridazin-6-yl)piperidin-4-yl)phenoxy)butoxy)acetyl)piperidin-4-yl)isoindolin-2-yl)piperidine-2,6-dione]	++ (40-60% : ++)	+++ (<40% : +++)	− (>80%; −)	+ (60-80%: +)	+++ (<40%: +++)
O=C1CCC(N2Cc3cc(C#CCOCCCCOc4ccc(C5CCN(C6=Nn7c(nnc7C(F)(F)F)CC6)CC5)cc4)ccc3C2=O)C(=O)N1 (centres unmarked) [Compound 42]	+ (60-80% : +)	+ (60-80% : +)	− (>80%; −)	− (>80%; −)	+ (60-80%: +)
O=C1CCC(N2C(=O)c3cccc(NCC(=O)N4CCC(N5CCC(C#Cc6ccc(C7CCN(C8=Nn9c(nnc9C(F)(F)F)CC8)CC7)cc6)CC5)CC4)c3C2=O)C(=O)N1 (centres unmarked) [Compound 43, 2-(2,6-dioxopiperidin-3-yl)-4-((2-oxo-2-(4-((4-(1-(3-(trifluoromethyl)-7,8-dihydro-[1,2,4]triazolo[4,3-b]pyridazin-6-yl)piperidin-4-yl)phenyl)ethynyl)-[1,4′-bipiperidin]-1′-yl)ethyl)amino)isoindoline-1,3-dione]	+++ (<40% : +++)	+++ (<40% : +++)	++ (40-60%: ++)	++ (40-60%: ++)	++ (40-60%: ++)
O=C1CCC(N2C(=O)c3cccc(N4CCC(N5CCC(C#Cc6ccc(C7CCN(C8=Nn9c(nnc9C(F)(F)F)CC8)CC7)cc6)CC5)CC4)c3C2=O)C(=O)N1 (centres unmarked) [Compound 44, 2-(2,6-dioxopiperidin-3-yl)-4-(4-((4-(1-(3-(trifluoromethyl)-7,8-dihydro-[1,2,4]triazolo[4,3-b]pyridazin-6-yl)piperidin-4-yl)phenyl)ethynyl)-[1,4′-bipiperidin]-1′-yl)isoindoline-1,3-dione]	+++ (<40% : +++)	+++ (<40% : +++)	− (>80%; −)	− (>80%; −)	++ (40-60%: ++)
